Reference: patent publication US20230136297A1, “Methods Of Treating Fabry Disease In Patients Having A Mutation In The GLA Gene” (Amicus Therapeutics, Inc., priority 2020, published 2023)
Residue numbers refer to the chain shown, from its start.

Tests used:
Assay in all cases: α-Gal A activity in lysates of transfected HEK-293 cells ± migalastat (HEK assay)
Assay type in all cases: cell-based
[1] = target: T1, α-Gal A mutant form I133F (Homo sapiens, UniProt P06280, I133F)
T1 construct: expressed in transfected cells; host or cells: HEK-293
T1 sequence (P06280 32-429 I133F): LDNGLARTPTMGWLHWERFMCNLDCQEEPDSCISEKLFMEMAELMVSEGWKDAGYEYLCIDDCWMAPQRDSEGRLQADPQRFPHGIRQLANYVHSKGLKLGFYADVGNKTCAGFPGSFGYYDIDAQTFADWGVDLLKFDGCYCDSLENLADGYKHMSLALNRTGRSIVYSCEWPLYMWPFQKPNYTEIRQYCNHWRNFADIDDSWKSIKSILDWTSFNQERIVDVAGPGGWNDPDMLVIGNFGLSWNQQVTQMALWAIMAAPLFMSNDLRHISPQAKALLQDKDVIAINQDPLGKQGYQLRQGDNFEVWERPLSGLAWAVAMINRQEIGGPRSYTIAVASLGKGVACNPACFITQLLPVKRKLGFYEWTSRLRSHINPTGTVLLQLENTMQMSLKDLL
Outline: (§1)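 Activity is reported as nmol of free 4-MU released per mg protein per hour (nmol/mg/hr).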

[2] = target: T2, α-Gal A mutant form V124G (Homo sapiens, UniProt P06280, V124G)
T2 construct: expressed in transfected cells; host or cells: HEK-293
T2 sequence (P06280 32-429 V124G): T1 sequence (P06280 32-429 I133F) with V93G, F102I
Outline: as §1

[3] = target: T3, α-Gal A mutant form W209R (Homo sapiens, UniProt P06280, W209R)
T3 construct: expressed in transfected cells; host or cells: HEK-293
T3 sequence (P06280 32-429 W209R): T1 sequence (P06280 32-429 I133F) with F102I, W178R
Outline: as §1

[4] = target: T4, α-Gal A mutant form G271A (Homo sapiens, UniProt P06280, G271A)
T4 construct: expressed in transfected cells; host or cells: HEK-293
T4 sequence (P06280 32-429 G271A): T1 sequence (P06280 32-429 I133F) with F102I, G240A
Outline: as §1

[5] = target: T5, α-Gal A mutant form G360A (Homo sapiens, UniProt P06280, G360A)
T5 construct: expressed in transfected cells; host or cells: HEK-293
T5 sequence (P06280 32-429 G360A): T1 sequence (P06280 32-429 I133F) with F102I, G329A
Outline: as §1

[6] = 10 μM migalastat minus baseline
[7] = HEK-293 lysates, 10 μM migalastat 5 days, mean ± SEM

`OC[C@H]1NC[C@H](O)[C@@H](O)[C@H]1O` [migalastat, (2R,3S,4R,5S)-2-(hydroxymethyl) piperdine-3,4,5-triol] was tested, and the “Absolute increase (% WT)” value [1, 6] was 3.1 % WT, the Relative increase ([1]; 10 μM migalastat ÷ baseline) was 5.27 and the “10 μM migalastat α-Gal A activity” value [1, 7] was 1542 ± 154 nmol/mg/h. For the same compound, the “10 μM migalastat α-Gal A activity (% WT)” value [1, 7] was 3.8 ± 0.3 % WT, the “Absolute increase (% WT)” value [2, 6] was 6.4 % WT and the “10 μM migalastat α-Gal A activity” value [2, 7] was 4316 ± 432 nmol/mg/h. For the same compound, the “10 μM migalastat α-Gal A activity (% WT)” value [2, 7] was 10.7 ± 1^ % WT, the “Absolute increase (% WT)” value [3, 6] was 17.5 % WT and the Relative increase ([3]; 10 μM migalastat ÷ baseline) was 1.25. For the same compound, the “10 μM migalastat α-Gal A activity” value [3, 7] was 28729 ± 1293 nmol/mg/h, the “10 μM migalastat α-Gal A activity (% WT)” value [3, 7] was 81.1 ± 4.6 % WT and the “Absolute increase (% WT)” value [4, 6] was 34.4 % WT. The Relative increase ([4]; 10 μM migalastat ÷ baseline) was 3.87, the “10 μM migalastat α-Gal A activity” value [4, 7] was 18928 ± 1069 nmol/mg/h and the “10 μM migalastat α-Gal A activity (% WT)” value [4, 7] was 46.4 ± 1.8 % WT. For the same compound, the “Absolute increase (% WT)” value [5, 6] was 7.5 % WT, the Relative increase ([5]; 10 μM migalastat ÷ baseline) was 1.28 and the “10 μM migalastat α-Gal A activity” value [5, 7] was 13443 ± 1048 nmol/mg/h. The “10 μM migalastat α-Gal A activity (% WT)” value [5, 7] was 31.3 ± 2.6 % WT.
